Measurements published in patent US20220289686A1, “COMPOSITIONS OF NRF2 INHIBITING AGENTS AND METHODS OF USE THEREOF” (Washington University, priority 2021, published 2022).
Where two headings read alike, the source gives them in different places.

Experiments:
[1] = tested on: NRF2 activity in H1299-NQO1-YFP cells; experiment: NRF2 activity reporter IC50 in H1299-NQO1-YFP cells vs NRF2 pathway activators (IncuCyte, YFP/mCherry); type: cell-based; details: for suppression of NRF2 activity (in words): IC50 experiments at the doses tested
Method: Readings were taken every 2 hours for at least 24 hours. […] Readings were also taken every 2 hours for 96 hours in and IncuCyte S3.
(§1) YFP total intensity (correlating to NRF2 activity) was normalized to NLS-mCherry (cell number) total intensity to give a ratio (YFP/mCherry). Ratios at one time point at least 24 hours post compounds were added were used. These numbers were then plotted in Graphpad Prism to calculate IC50s. […] From three biological replicates, percent confluence was used for proliferation assays to calculate IC50s, calculations performed using Graphpad Prism.

[2] = tested on: mutant KEAP1 activation of NRF2 pathway in H1299-NQO1-YFP cells; experiment: H1299-NQO1-YFP reporter cells transfected with mutant KEAP1; type: cell-based; details: 10 μM PYR, mutant KEAP1 overexpressed
Method: Data is of 3 independent experiments, error bars are SD.
H1299-NQO1-YFP cells were transfected with WT, R320Q, R470C, or V115F FLAG-KEAP1 constructs using Lipofectamine 2000. […] Calculations are detailed below. This was performed in biological triplicate and error bars are SD.

[3] = tested on: NRF2 protein; experiment: Western blot analysis of NRF2 protein abundance and downstream targets in cell lines; type: cell-based; details: for NRF2 protein abundance: 24-48 hours, PYR 10 μM, analogs 1 μM (104 in HEK293T 10 μM), MTX and PEM 0.1 μM, CG 10 μM
Method: (§2) Western Blots: KYSE70, HEK293T cells were plated and 24 hours later treated with compounds (see figure legends for details). Either at 24 or 48 hours later, cells were scrapped in RIPA buffer (0.2% deoxycholate, 0.1% SDS, 1% NP40, 150 mM NaCl, 50 mM Tris pH 7.4, 2 mM EDTA) supplemented with protease and phosphatase inhibitors, cleared at 14000×g for 15 minutes at 4° C., and supernatants were quantified by BCA assay (Pierce, 23225). Protein samples (20 μg) were prepared with 1×LDS buffer with 100 mM DTT, ran on NuPAGE 4-12% Bis-tris gels, and transferred onto a […] nitrocellulose membrane (Thermo, 88018). All blots were blocked in 5% milk in TBST for 30 minutes. After incubation of the primary antibody overnight at 4° C. and washed three times with 1×TBST, blots were incubated with LI-COR secondary antibodies for 1-2 hours, washed in 1×TBST thrice, and then imaged via a LI-COR Odyssey instrument (Li-COR, Lincoln, Nebr.).

[4] = tested on: NRF2 mRNA and NRF2 target gene mRNA; experiment: RT-qPCR of NRF2 mRNA and NRF2 downstream targets in KYSE70 cells; type: cell-based; details: 24 or 48 hours, PYR 10 μM, analogs 1 μM, MTX and PEM 0.1 μM
Method: (§3) qRT-PCR: Total RNA was extracted using PureLink RNA kit following the manufacturers protocol. Primers for qPCR were designed using the National Center for Biotechnology Information's (NCBI) Primer-BLAST platform. For primer sequences, see Table 2. RNA was quantified using a Nanodrop One (Thermo, Waltham, Mass.), and the reverse transcription reaction was performed using 2 μg of RNA with the iSCRIPT Clear kit with DNAse (Biorad, 170-8891). For the qRT-PCR, PowerUP SYBR Green (Thermo, A25741) was used, and data were analyzed on an AB QuantStudio 6 Flex Real Time PCR machine (Applied Biosystems, Foster City, Calif.). ΔCT values were normalized to housekeeping gene RPL13a and then normalized to DMSO for final ΔΔCT value.

[5] = tested on: KYSE70 cells; experiment: Proliferation IC50 (percent confluence, IncuCyte) in KYSE70 cells; type: cell-based; details: Homo sapiens, read-out: proliferation IC50
Method: as §1, with “IncuCyte and IC50 calculations: […] […] Readings were taken every 2 hours for at least 24 hours. […] Readings were also taken every 2 hours for 96 hours in and IncuCyte S3. YFP total” for “YFP total”

[6] = tested on: H1299 cells; experiment: Proliferation IC50 (percent confluence, IncuCyte) in H1299 cells; type: cell-based; details: Homo sapiens, read-out: proliferation IC50
Method: as §1, with “IncuCyte and IC50 calculations: […] […] Readings were taken every 2 hours for at least 24 hours. […] Readings were also taken every 2 hours for 96 hours in and IncuCyte S3. YFP total” for “YFP total”

[7] = target: T1, DHFR protein (Homo sapiens, UniProt P00374); experiment: Western blot for DHFR protein stabilization; type: cell-based; details: western blot at the doses used
T1 construct: endogenous in cells; host or cells: KYSE70, HEK293T, H1299, A549, OE21, PC-9
T1 sequence (P00374 1-187): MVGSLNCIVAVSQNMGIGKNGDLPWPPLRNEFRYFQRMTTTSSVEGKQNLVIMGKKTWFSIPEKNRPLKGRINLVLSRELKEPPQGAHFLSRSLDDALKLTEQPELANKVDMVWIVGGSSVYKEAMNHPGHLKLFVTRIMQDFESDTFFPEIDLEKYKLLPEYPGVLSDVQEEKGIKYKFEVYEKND
Method: as §2

[8] = tested on: NRF2 protein; experiment: Western blot analysis of NRF2 protein abundance and downstream targets in cell lines; type: cell-based; details: for NRF2 protein levels with MLN induced stabilization: H1299, 10 μM PYR or 1 μM 115 with 0.5 μM MLN, 24 hours
[9] = target: T2, human DHFR (hDHFR) (Homo sapiens, UniProt P00374); experiment: Human DHFR enzymatic assay; type: biochemical; details: in vitro enzymatic assay, hDHFR 3E-3 Units; read-out: hDHFR3E-3 Units IC50 μM + SEM
T2 construct: purchased
T2 sequence (P00374 1-187): T1 sequence (P00374 1-187)

[10] = Mouse study on analog 115: pharmacokinetic profile and clinical observations; details: for concentration at 7 h: female, CD-1, mouse, plasma
Method: Two tests were conducted, on for a single oral dose of 10 mg/kg and for an intravenous 2 mg/kg dose in female CD-1 mice (n=3 for each group).
Mouse study with Analog 115: All mouse work was performed by Paraza Pharma, Inc. All pertinent information and methods are listed in FIG. 17.

[11] = tested on: KYSE70 cells; experiment: Metabolomics analysis of KYSE70 cells; type: cell-based; details: KYSE70, 48 hours; 10 μM PYR, 1 μM 115, 0.1 μM MTX
Method: After 48 hours, 1 ml of media was aliquoted into a clean Eppendorf and kept on ice, and the rest of the media was removed from these dishes. The cells were then washed in water twice and then scrapped in ice cold methanol.

[12] = tested on: AXIN2 and CK1γ1 mRNA; experiment: qRT-PCR of AXIN2 and CK1γ1 mRNA (not NRF2 target genes) in KYSE70 cells; type: cell-based; details: KYSE70, 48 hours; 1 μM 115, 0.1 μM MTX, 0.1 μM PEM
Text: Single experiment shown. AXIN2 and CK1γ1 were done in same experiment, but separated for discussion. Error bars are SD and * represents p-value <0.05.
as §3

[13] = read-out: PRL295 5 μM IC50 μM ± SEM, Table 3, activator PRL295 5 μM, H1299-NQO1-YFP cells
[14] = read-out: PRL295 5 μM IC50 AM ± SEM, Table 1, activator PRL295 5 μM, H1299-NQO1-YFP cells
[15] = Table 1 and text, average over activators CDDO, PRL295, SULF, H1299-NQO1-YFP cells, read-out: Avg IC50
[16] = Table 6 NRF2 inhibitors, read-out: Avg IC50
[17] = Table 3, activator CDDO 100 nM, H1299-NQO1-YFP cells, read-out: CDDO 100 nM IC50 μM ± SEM
[18] = Table 3, activator SULF 2 μM, H1299-NQO1-YFP cells, read-out: SULF 2 μM IC50 μM ± SEM
[19] = Table 3, average over activators, H1299-NQO1-YFP cells, read-out: Avg IC50

Row | Structure (SMILES) | IC50 [1, 13] | IC50 [1, 15] | IC50 [1, 16] | IC50 [1, 17] | IC50 [1, 18] | IC50 [1, 19] | IC50 [1, 14] | NRF2 protein abundance ([3]; western blot) | NRF2 mRNA and NRF2 target gene mRNA [4] | IC50 ([5]; KYSE-70, 96 h) | DHFR protein stabilization [7] | NRF2 protein levels with MLN induced stabilization [8] | AXIN2 and CK1γ1 mRNA [12] | suppression of NRF2 activity (in words) [1] | also measured
1 | CCc1nc(N)nc(N)c1-c1ccc(Cl)cc1 [PYR, 5-(4-chlorophenyl)-6-ethylpyrimidine-2,4-diamine, reference compound] | 0.873 ± 0.032 µM |  |  |  |  |  | 0.873 ± 0.032 µM | decreases NRF2 protein abundance | abrogated NRF2 mRNA and NRF2 target gene mRNA decrease | 1240 nM | DHFR protein was stabilized | Neither PYR nor 115 can decrease NRF2 protein levels |  |  | IC50 ([1]; read-out: Avg IC50 μM, Table 1 and text, average over activators CDDO, PRL295, SULF, H1299-NQO1-YFP cells): 1.2 µM; IC50 ([1]; read-out: Avg IC50 μM, Table 3, average over activators, H1299-NQO1-YFP cells): 1.23 µM; IC50 ([1]; read-out: Avg IC50 μM, Table 6 NRF2 inhibitors): 1.23 µM; IC50 ([1]; read-out: CDDO 0.1 μM IC50 μM ± SEM, Table 1, activator CDDO 0.1 μM, H1299-NQO1-YFP cells): 1.25 ± 0.024 µM; IC50 ([1]; read-out: CDDO 100 nM IC50 μM ± SEM, Table 3, activator CDDO 100 nM, H1299-NQO1-YFP cells): 1.25 ± 0.024 µM; IC50 ([1]; read-out: SULF 2 μM IC50 μM ± SEM, Table 1, activator SULF 2 μM, H1299-NQO1-YFP cells): 1.59 ± 0.0448 µM; IC50 ([1]; read-out: SULF 2 μM IC50 μM ± SEM, Table 3, activator SULF 2 μM, H1299-NQO1-YFP cells): 1.59 ± 0.0448 µM; mutant KEAP1 activation of the NRF2 pathway [2]: repressed mutant KEAP1 activation of the pathway; NRF2 protein on co-treatment with Bortezomib ([3]; BORT 0.04 μM co-treatment, HEK293T, H1299): prevented PYR from decreasing NRF2; expression of downstream NRF2 target proteins ([3]; western blot, PYR treatment): decreased expression of downstream NRF2 target proteins; IC50 ([6]; NCI-H1299, 96 h): 3830 nM
2 | Nc1nc2[nH]cc(CCc3ccc(C(=O)N[C@@H](CCC(=O)O)C(=O)O)cc3)c2c(=O)[nH]1 [PEM, reference compound] | 0.112 ± 0.0068 µM |  |  | 0.334 ± 0.03 µM | 0.382 ± 0.0374 µM | 0.276 µM |  | did not | did not |  |  |  | decreased AXIN2 and CK1γ1 mRNA | only partial suppression of NRF2 activity | 
3 | Nc1nc(=O)c2c([nH]1)NCC(CNc1ccc(C(=O)N[C@@H](CCC(=O)O)C(=O)O)cc1)N2C=O (mixture of isomers) [FA, Folinic Acid] |  |  |  |  |  |  |  |  |  |  |  |  |  |  | stabilization of NRF2 by FA alone ([8]; H1299, 10 ng/ml FA, 24 hr): no stabilization of NRF2
4 | CN(Cc1cnc2nc(N)nc(N)c2n1)c1ccc(C(=O)N[C@@H](CCC(=O)O)C(=O)O)cc1 [MTX, Methotrexate, reference compound] | 0.024 ± 0.0024 µM |  |  | 0.0008 µM | 0.0358 ± 0.0031 µM | 0.0202 µM |  | decreased | decreased | 12.4 nM |  |  | decreased AXIN2 and CK1γ1 mRNA |  | 

Continued, in another order:

Row | IC50 [1, 13] | IC50 [1, 15] | IC50 [1, 16] | IC50 [1, 17] | IC50 [1, 18] | IC50 [1, 19] | Structure (SMILES) | IC50 [1, 14] | NRF2 protein abundance ([3]; western blot) | NRF2 mRNA and NRF2 target gene mRNA [4] | IC50 ([5]; KYSE-70, 96 h) | DHFR protein stabilization [7] | NRF2 protein levels with MLN induced stabilization [8] | AXIN2 and CK1γ1 mRNA [12] | suppression of NRF2 activity (in words) [1] | also measured
5 |  | 0.05 µM | 0.057 µM |  |  |  | CCc1nc(N)nc(N)c1-c1cccc(C(F)(F)F)c1 [WCDD115, 6-ethyl-5-(3-(trifluoromethyl)phenyl)pyrimidine-2,4-diamine] | 0.06 ± 0.001 µM | decrease NRF2 protein abundance |  |  |  | Neither PYR nor 115 can decrease NRF2 protein levels | some minimal effect on AXIN2 |  | IC50 ([1]; Table 1, activator CDDO 0.1 μM, H1299-NQO1-YFP cells, read-out: CDDO 0.1 μM IC50 μM ± SEM): 0.052 ± 0.0001 µM; IC50 ([1]; Table 1, activator SULF 2 μM, H1299-NQO1-YFP cells, read-out: SULF 2 μM IC50 μM ± SEM): 0.057 ± 0.003 µM; potency in NRF2 suppression compared to PYR ([1]; relative to PYR): 10 fold; IC50 ([1]; unit inferred, read-out: IC50): 0.05 µM; IC50 ([5]; KYSE-70, KYSE70, 96-hour time point, one or two experiments): 31.9 nM; IC50 ([6]; NCI-H1299, H1299, 96-hour time point, initial experiment): 145 nM; IC50 [9]: 0.144 ± 0.0224 µM; concentration at 7 h ([10]; iv, 2 mg/kg): 76.4 ng/mL; concentration at 7 h ([10]; po, 10 mg/kg): ~450 ng/mL; plasma level at 24 hours post dosing ([10]; oral 10 mg/kg or IV 2 mg/kg, 24 hours post dosing): unquantifiable; reduction potential in the form of glutathione ratios [11]: decreased
6 |  | > 20 µM | > 20 µM |  |  |  | CCc1nc(N)ncc1-c1ccc(Cl)cc1 [WCDD101, 5-(4-chlorophenyl)-4-ethylpyrimidin-2-amine] |  |  |  |  | DHFR was not stabilized |  |  | did not have any effect on NRF2 activity | 
